Assay results as given in patent US20220305121A1, “N-ARYL SULFONAMIDE DERIVATIVES AS VACCINE ADJUVANT” (The Regents of the University of California, priority 2019, published 2022).
“Also recorded” adds a separate entry of the source.

Experiments:
Format in all cases: cell-based
[1] = test system: NF-κB and ISRE; test: NF-κB and ISRE reporter assays (primary screens), statements in words for both assays; conditions: with LPS or IFN-α as primary stimulus; compared to compound 1
Description: (§1) THP1-Blue™ NF-κB cells were plated in 96-well plates at 10^5 cells/well in 100 μl RPMI supplemented with 10% fetal bovine serum (FBS, Omega Scientific, Inc., Tarzana, Calif.), 100 U/mL penicillin, 100 μg/ml streptomycin (Thermo Fisher Scientific) and Normocin (Invivogen). LPS was prepared in assay medium at a concentration of 20 μg/mL. Tested compounds were dissolved in DMSO at 1 mM as a stock solution and were further diluted in the LPS solution to a final concentration of 10 μM. 100 μL of this solution was then transferred to the plated cells to obtain a final concentration of LPS at 10 μg/mL and compound at 5 μM ([…]). The culture supernatants were harvested after a 20 hour incubation period, SEAP activity in the culture supernatants was determined by a colorimetric assay using QuantiBlue (Invivogen). Plate absorbance was read at 630 nm using a Tecan Infinite M200 plate reader (Männedorf, Switzerland). The SEAP concentration was directly proportional to NF-κB activity, which was 2-point normalized to yield activity of compound 1+LPS as 200% and activity for LPS as 100%.
(§2) ISRE-bla THP-1 cells were plated in 96-well plates at 5×10^4 cells/well in 50 μl RPMI supplemented with 10% dialyzed FBS (Atlanta Biologicals, Inc., GA), 0.1 mM nonessential amino acids, 1 mM sodium pyruvate, 100 U/mL penicillin and 100 μg/ml streptomycin. Type I IFN-α (R&D Systems, #11200-2) solution was prepared in assay medium at a concentration of 200 U/mL Tested compounds were dissolved in DMSO at 1 mM and were further diluted in the IFN-α solution to a final concentration of 10 μM. 50 μL of this solution was then transferred to the plated cells to obtain a final concentration of IFN-α at 100 U/mL and compound at 5 μM ([…]), The cells were incubated for 16 hours, after which 20 μL of 6×LiveBLAzer™ FRET B/G Substrate (CCF4-AM) mixture (prepared according to the manufacturer's instructions) was added to each well, Plates were incubated at room temperature in the dark for 3 hours. Fluorescence was measured on a Tecan Infinite M200 plate reader at an excitation wavelength of 405 nm, and emission wavelengths of 465 nm and 535 nm. Background values (cell free wells at the same fluorescence wavelength) were subtracted from the raw fluorescence intensity values and the emission ratios were calculated as the ratio of background subtracted fluorescence intensities at 465 nm to background subtracted fluorescence intensities at 535 nm. The ISRE activity values for these compounds were 2-point normalized to yield activity of compound 1+IFN-α as 200% and activity for IFN-α as 100%.
(§3) Measurement of NF-κB Activation Using THP1-Blue NF-κB Cells. THP1-Blue NF-κB cells were plated in 96-well plates at 10^5 cells/well in 100 μL of RPMI supplemented with 10% fetal bovine serum (FBS, Omega Scientific, Inc., Tarzana, Calif.), 100 U/mL penicillin, 100 μg/mL streptomycin (Thermo Fisher Scientific), and Normocin (Invivogen). LPS was prepared in assay medium at a concentration of 20 μg/mL. Tested compounds were dissolved in DMSO at 1 mM as a stock solution and were further diluted in the LPS solution to a final concentration of 10 μM. 100 μL of this solution was then transferred to the plated cells to obtain a final concentration of LPS at 10 μg/mL and compound at 5 μM ([…]). The culture supernatants were harvested after a 20 hours incubation period. SEAP activity in the culture supernatants was determined by a colorimetric assay using QuantiBlue (Invivogen). Plate absorbance was read at 630 nm using a Tecan Infinite M200 plate reader (Mannedorf, Switzerland). The SEAP concentration was directly proportional to NF-κB activity, which was two-point normalized to yield activity of compound 1+LPS as 200% and activity for LPS as 100%.
Measurement of ISRE Activity in ISRE-bla THP-1 Cells. […]

[2] = test system: NF-κB; test: Measurement of NF-κB activation using THP1-Blue NF-κB cells (SEAP reporter, LPS as primary stimulus)
Description: as §1, §3

[3] = test system: THP-1 cells; test: Cell viability assay (MTT); conditions: compound 5 μM, 18 hours incubation; normalized to DMSO as 100%; mean
Description: THP-1 cells were plated in 96-well plates (10^5 cells/well) in 100 μL RPMI supplemented with 10% FBS, 100 U/mL penicillin and 100 μg/ml streptomycin. Compounds were dissolved in DMSO at 1 mM stock solution and were further diluted to 10 μM in the assay medium. 100 μL of this solution was added to the cells to obtain a final compound concentration of 5 μM ([…]). After 18 hours incubation, a solution of MTT in assay media (0.5 mg/mL) was added to each well and further incubated for 4 to 6 hours, followed by addition of cell lysis buffer (15% w/v SDS and 0.12% v/v 12N HCl aqueous solution), incubated overnight, and then absorbance measured at 570 nm using 650 nm as reference using Tecan Infinite M200 plate reader.
Cell Viability Assay. THP-1 cells were plated in 96-well plates (10^5 cells/well) in 100 μL RPMI supplemented with 10% FBS, 100 U/mL penicillin, and 100 μg/mL streptomycin. Compounds were dissolved in DMSO at 1 mM stock solution and were further diluted to 10 μM in the assay medium. 100 μL of this solution was added to the cells to obtain a final compound concentration of 5 μM ([…]). After 18 h incubation, a solution of MTT in assay media (0.5 mg/mL) was added to each well and further incubated for 4-6 hours, followed by addition of cell lysis buffer (15% w/v SDS and 0.12% v/v 12 N HCl aqueous solution), incubation overnight, and then absorbance was measured at 570 nm using 650 nm as reference using Tecan Infinite M200 plate reader.

[4] = test system: ISRE; test: Measurement of ISRE activity in ISRE-bla THP-1 cells (FRET, IFN-α as primary stimulus); conditions: for activity at 5 µM: read-out: ISRE % Activation
Description: as §2
Measurement of ISRE Activity in ISRE-bla THP-1 Cells. ISREbla THP-1 cells were plated in 96-well plates at 5×10^4 cells/well in 50 μL of RPMI supplemented with 10% dialyzed FBS (Atlanta Biologicals, Inc., GA), 0.1 mM nonessential amino acids, 1 mM sodium pyruvate, 100 U/mL penicillin, and 100 μg/mL streptomycin. Type I IFN-α (R&D Systems, no. 11200-2) solution was prepared in assay medium at a concentration of 200 U/mL. Tested compounds were dissolved in DMSO at 1 mM and were further diluted in the IFN-α solution to a final concentration of 10 μM. 50 μL of this solution was then transferred to the plated cells to obtain a final concentration of IFN-α at 100 U/mL and compound at 5 μM ([…]). The cells were incubated for 16 hours, after which 20 μL of 6×LiveBLAzer FRET B/G substrate (CCF4-AM) mixture (prepared according to the manufacturer's instructions) was added to each well. Plates were incubated at room temperature in the dark for 3 hours. Fluorescence was measured on a Tecan Infinite M200 plate reader at an excitation wavelength of 405 nm and emission wavelengths of 465 and 535 nm. Background values (cell free wells at the same fluorescence wavelength) were subtracted from the raw fluorescence intensity values and the emission ratios were calculated as the ratio of background subtracted fluorescence intensities at 465 nm to background subtracted fluorescence intensities at 535 nm. The ISRE activity values for these compounds were two-point normalized to yield activity of compound 1+IFN-α as 200% and activity for IFN-α as 100%.

[5] = compound 5 μM + LPS, 20 hour incubation, two point normalized: compound 1 + LPS = 200%, LPS = 100%, mean
[6] = Homo sapiens, THP-1, compound 5 μM + IFN-α 100 U/mL, 16 hours, two point normalized: compound 1 + IFN-α = 200%, IFN-α = 100%, mean

Row | SMILES | activity in NF-κB and ISRE assays (in words) [1] | activity at 5 µM [2, 5] | EC50 ([2]; dose response in the presence of LPS) | MTT % Viability [3] | activity at 5 µM [4, 6] | EC50 ([4]; Homo sapiens, THP-1, dose response in the presence of IFN-α) | NF-κB % Activation [2, 5] | ISRE % Activation ([4]; compound 5 μM + IFN-α 100 U/mL, 16 hours, two point normalized: compound 1 + IFN-α = 200%, IFN-α = 100%, mean) | NF-κB activity (in words) ([2]; with LPS) | ISRE activity (in words) ([4]; with IFN-α)
1 | COc1ccc(S(=O)(=O)Nc2cc(OC)c(Cl)cc2OC)cc1 [Compound 12, N-(4-chloro-2,5-dimethoxyphenyl)-4-methoxybenzenesulfonamide] | tolerated; also recorded: retained activity | 226% | 1850 nM | 69.6% | 219% | 1400 nM | – | – | – | –
2 | CCCOc1ccc(S(=O)(=O)Nc2cc(OC)c(Cl)cc2OC)cc1 [Compound 13, N-(4-chloro-2,5-dimethoxyphenyl)-4-propoxybenzenesulfonamide] | weakly active; also recorded: retained activity | 149% | – | 71.3% | 125% | – | – | – | – | –
3 | C#CCOc1ccc(S(=O)(=O)Nc2cc(OC)c(Cl)cc2OC)cc1 [Compound 15, N-(4-chloro-2,5-dimethoxyphenyl)-4-(prop-2-yn-1-yloxy) benzenesulfonamide] | inactive | – | – | 80.9% | – | – | 97% | 99% | – | –
4 | CCCc1ccc(S(=O)(=O)Nc2cc(OC)c(Cl)cc2OC)cc1 [Compound 16, N-(4-chloro-2,5-dimethoxyphenyl)-4-propylbenzenesulfonamide] | loss of activity | 102% | – | 85.7% | 103% | – | – | – | – | –
5 | COc1cc(NS(=O)(=O)c2ccc(Oc3ccccc3)cc2)c(OC)cc1Cl [Compound 22, N-(4-chloro-2,5-dimethoxyphenyl)-4-phenoxybenzenesulfonamide] | inactive | 98% | – | 91.3% | 95% | – | – | – | – | –
6 | COc1cccc(S(=O)(=O)Nc2cc(OC)c(Cl)cc2OC)c1 [Compound 23, N-(4-chloro-2,5-dimethoxyphenyl)-3-methoxybenzenesulfonamide] | none of these molecules were active | 116% | – | 79.6% | 104% | – | – | – | – | –
7 | COc1cc(NS(=O)(=O)c2ccccc2OC)c(OC)cc1Cl [Compound 24, N-(4-chloro-2,5-dimethoxyphenyl)-2-methoxybenzenesulfonamide] | none of these molecules were active | 96% | – | 92.1% | 101% | – | – | – | – | –
8 | CCOc1ccc(S(=O)(=O)Nc2cc(OC)c(Cl)cc2OC)cc1Br [Compound 25, 3-Bromo-N-(4-chloro-2,5-dimethoxyphenyl)-4-ethoxybenzenesulfonamide] | inactive | 87% | – | 85.0% | 101% | – | – | – | – | –
9 | COc1cc(NS(=O)(=O)c2ccc(C(N)=O)cc2)c(OC)cc1Cl [Compound 27, 4-(N-(4-chloro-2,5-dimethoxyphenyl)sulfamoyl)benzamide] | lost activity | 103% | – | 91.0% | 94% | – | – | – | – | –
10 | CCOC(=O)c1ccc(S(=O)(=O)Nc2cc(OC)c(Cl)cc2OC)cc1 [Compound 29, Ethyl 4-(N-(4-chloro-2,5-dimethoxyphenyl)sulfamoyl)benzoate] | retained partial activity | 189% | – | 70.8% | 169% | – | – | – | – | –
11 | CNC(=O)c1ccc(S(=O)(=O)Nc2cc(OC)c(Cl)cc2OC)cc1 [Compound 30, 4-(N-(4-chloro-2,5-dimethoxyphenyl)sulfamoyl)-N-methylbenzamide] | completely inactive | 103% | – | 77.0% | 105% | – | – | – | – | –
12 | CCOc1ccc(S(=O)(=O)N(c2cc(OC)c(Cl)cc2OC)C(C)C)cc1 [Compound 40, N-(4-chloro-2,5-dimethoxyphenyl)-4-ethoxy-N-isopropylbenzenesulfonamide] | inactive | 76% | – | 103.2% | 169% | – | – | – | eliminated the NF-κB activity; also recorded: loss of NF-κB activity | retaining ISRE activity
13 | CCOc1ccc(S(=O)(=O)N(CC(C)C)c2cc(OC)c(Cl)cc2OC)cc1 [Compound 41, N-(4-chloro-2,5-dimethoxyphenyl)-4-ethoxy-N-isobutylbenzenesulfonamide] | regained the activity in both the NF-κB and ISRE assays | 175% | – | 76.7% | 193% | – | – | – | – | –
